The values that follow are results of earlier work, collected in patent publication US20040058899A1, “Use of epothilones and analogs in conjunction with ophthalmic surgery” (priority 2002, published 2004).

The subject of the series is tumor-implanted mice. The settings on record: for toxic effects / animal deaths: comparably effective doses.

As for `COc1cccc2c1C(=O)c1c(O)c3c(c(O)c1C2=O)C[C@@](O)(C(=O)CO)C[C@@H]3O[C@H]1C[C@H](N)[C@H](O)[C@H](C)O1` [adriamycin], the “toxic effects / animal deaths” value is given as “caused some animal deaths”.
On to `C/C1=C/C[C@@H](/C(C)=C/c2csc(C)n2)OC(=O)C[C@H](O)C(C)(C)C(=O)[C@H](C)[C@@H](O)[C@@H](C)CCC1` [deoxyepothilone B], for which the tumor regression entry was “complete tumor regression” and the “toxic effects / animal deaths” value is “without any noticeable toxic effects”.
For `CC(=O)O[C@H]1C(=O)[C@@]2(C)[C@H]([C@H](OC(=O)c3ccccc3)[C@]3(O)C[C@H](OC(=O)[C@H](O)[C@@H](NC(=O)c4ccccc4)c4ccccc4)C(C)=C1C3(C)C)[C@]1(OC(C)=O)CO[C@@H]1C[C@@H]2O` [paclitaxel], the “toxic effects / animal deaths” value is “caused some animal deaths”.
